Experimental data published in US20230077723A1, “N-SUBSTITUTED-3,4-(FUSED 5-RING)-5-PHENYL-PYRROLIDINE-2-ONE COMPOUNDS AS INHIBITORS OF ISOQC AND/OR QC ENZYME” (Scenic Immunology B.V., priority 2019, published 2023).
pIC50: −log10 of the molar value.

Assays:
[1] = molecular target: T1, Recombinant QC enzyme (residues 33-361 of uniprot ID Q16769) (Homo sapiens, UniProt Q16769); test: Assay 5 - QC potency, fluorescent enzymatic assay; format: biochemical; details: fluorescent read-out; read-out: QC Pot. Assay No. 5
T1 construct: bacterial expression of residues 33-361 of uniprot ID Q16769; His tag (cleaved yes); made in house; host or cells: bacterial expression (pET32a)
T1 sequence (Q16769 33-361): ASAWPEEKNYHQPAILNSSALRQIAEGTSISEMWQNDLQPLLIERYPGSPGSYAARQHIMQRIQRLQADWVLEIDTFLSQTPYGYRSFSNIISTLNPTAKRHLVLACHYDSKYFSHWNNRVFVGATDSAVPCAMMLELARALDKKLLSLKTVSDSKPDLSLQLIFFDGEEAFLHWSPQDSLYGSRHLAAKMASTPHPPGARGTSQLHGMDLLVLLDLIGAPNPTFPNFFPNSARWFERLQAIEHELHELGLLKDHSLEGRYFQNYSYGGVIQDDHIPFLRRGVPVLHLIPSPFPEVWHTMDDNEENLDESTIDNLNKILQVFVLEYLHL
From the text: Recombinant QC enzyme was produced by bacterial expression of residues 33-361 of uniprot ID Q16769, fused to a His tag, codon optimized and cloned into the pET32a plasmid backbone. After scale-up, expression and lysis, protein was purified by Ni-NTA IMAC, dialysed in the presence of Factor Xa, further purified by Ni-NTA reverse IMAC and finally filtrated for size on a Superdex 200 16/60 column. Final protein was concentrated using a spin concentrator at 10 kDa molecular weight cutoff and formulated in 150 mM NaCl, 50 mM Tris-HCl, 50% Glycerol, pH 8.0.
(§1) Pyroglutamylation was measured by conversion of glutamine-4-amino-7-methylcoumarine (H-Gln-AMC, Bachem) to pyroglutamyl-AMC, which is subsequently a specific substrate for pyroglutamylaminopeptidase (pGAPase, Qiagen), releasing free AMC which can be fluorescently detected. For a typical inhibition assay, 7.5 μL aliquots of threefold dilutions of test compound in 50 mM Tris pH8 buffer were plated in 384-well plates. 15 μL 20 μM h-Gln-AMC (diluted from a 40 mM stock dissolved in 25 mM HEPES using 50 mM Tris-HCl pH 8.0) was added to each well. Finally, 7.5 μL, 3 ng/μL recombinant QC enzyme was added and the reaction mixture was incubated for 1 hour at 37° C. A 5 minute incubation at 98° C. was then performed to denature the QC enzyme and stop the reaction.
(§2) To detect the amount of pyroglutamyl-AMC formed, a 0.125 U/mL pGAPase enzyme diluted in 50 mM Tris-HCl pH 8.0 containing 10 mM dithiothreitol (DTT) solution was prepared. 25 μL of the pyroglutamylation reaction mixture was transferred into an empty plate and to that, 25 μL of the pGAPase enzyme solution was added. Plates were then incubated for 25 minutes at room temperature before fluorescence readings were taken on an Envision2 plate reader with excitation set at 380 nm and emission at 450 nm.
(§3) DMSO concentrations during the assay never exceeded 1% and activities were compared to controls containing only the same amount of DMSO and no test compound. Controls were taken along containing pyroglutamylated-AMC (Bachem, dissolved at 10 mM in DMSO) instead of H-Gln-AMC to control for pGAPase inhibition.
IC50 values are calculated using non-linear regression analysis with GraphPad Prism software.

human isoQC (S53-L382) = molecular target: T2, human isoQC (S53-L382) (Homo sapiens, UniProt Q9NXS2); test: Assay 3 - isoQC potency, fluorescent enzymatic assay; format: biochemical; details: fluorescent read-out; read-out: isoQc Pot. Assay No. 3
T2 construct: enzymatically active region of human isoQC (S53-L382; see, e.g., Huang et al., 2011); GST-Enterokinase site (N, cleaved yes); made in house; host or cells: E. coli
T2 sequence (Q9NXS2 53-382): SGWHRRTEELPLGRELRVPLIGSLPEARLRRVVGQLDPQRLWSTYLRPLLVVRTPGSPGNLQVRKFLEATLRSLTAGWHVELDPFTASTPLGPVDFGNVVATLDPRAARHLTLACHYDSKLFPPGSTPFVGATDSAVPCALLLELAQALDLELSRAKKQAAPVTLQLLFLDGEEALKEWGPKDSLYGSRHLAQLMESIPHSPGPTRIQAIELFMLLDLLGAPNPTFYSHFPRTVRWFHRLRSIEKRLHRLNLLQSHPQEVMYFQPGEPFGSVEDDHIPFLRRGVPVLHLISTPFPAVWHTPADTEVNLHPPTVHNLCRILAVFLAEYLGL
Protocol: For this assay specifically, isoQC production was performed slightly different than described in the general methods: The Golgi luminal, enzymatically active region of human isoQC (S53-L382; see, e.g., Huang et al., 2011) was obtained by expression in E. coli of an N-terminally GST Enterokinase and C-terminally 6×His tagged construct in the pET41(+) vector and subsequent purification using Ni-NTA IMAC. Enterokinase digestion ensued, followed by another Ni-NTA IMAC purification, Superdex75 based size exclusion and finally a spin concentration using a 10 kDa molecular weight cutoff. The final protein is formulated in 50 mM Tris-HCl, 150 mM NaCl, 50% Glycerol, pH 7.8.
as §1, with “isoQC” for “QC”
as §2
as §3, with “inhibition. IC50 values are calculated using non-linear regression analysis with GraphPad Prism software.” for “inhibition.”

[2] = system: pyroglutamylated CD47 (pE-CD47) in KBM7 cells; test: Assay 6 - cell-based potency assay (pE-CD47 CC2C6 staining vs total CD47); design: species or system human; details: Homo sapiens, KBM-7, 72 h, CC2C6 signal, read-out: Cell Pot. Assay No. 6
Outline: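 KBM7 cells received a 10-point 2-fold compound series for 72 h at 37 °C, then were stained with anti-CD47 clones 2D3 (total) and CC2C6 (pyroglutamylated) and analysed by flow cytometry on DAPI-negative cells. MFI was scaled between wild-type and CD47- or QPCTL-knockout cells; IC50 came from 3-parameter logistic fit of CC2C6 signal, top fixed at 1.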

| Compound | pIC50 [1] | pIC50 (human isoQC (S53-L382)) | pIC50 [2] |
| --- | --- | --- | --- |
| COc1n[nH]c2c1C(c1ccc(N3CCC(F)(F)C3)cc1F)N(c1ccc3[nH]cnc3c1)C2=O (centres unmarked) [FRPPO-173] | 7.00 to 7.60 | 7.00 to 7.60 | – |
| Cc1[nH]nc2c1C(c1ccc(N3CCC(F)(F)C3)c(F)c1F)N(c1ccc3[nH]cnc3c1)C2=O (centres unmarked) [FRPPO-161] | 7.00 to 7.60 | 7.00 to 7.60 | > 6.00 |
| Cc1onc2c1C(c1ccc(-c3cnn(C(F)(F)F)c3)cc1F)N(c1ccc3[nH]cnc3c1)C2=O (centres unmarked) [FRPPO-177] | 7.00 to 7.60 | > 7.60 | – |
| O=C1c2[nH]ncc2C(c2ccc(N3CCC(F)(F)C3)cc2F)N1c1ccc2[nH]cnc2c1 (centres unmarked) [FRPPO-171] | 5.30 to 7.00 | 5.30 to 7.00 | – |
| Cc1noc2c1C(c1ccc(-c3cnn(C(F)(F)F)c3)cc1F)N(c1ccc3[nH]cnc3c1)C2=O (centres unmarked) [FRPPO-176] | 5.30 to 7.00 | 7.00 to 7.60 | – |

Second part, the compound after the results:

| pIC50 [1] | pIC50 (human isoQC (S53-L382)) | pIC50 [2] | Compound |
| --- | --- | --- | --- |
| 5.30 to 7.00 | 5.30 to 7.00 | > 6.00 | Cc1nn(C)c2c1C(c1ccc(-c3cnc(C(F)(F)F)s3)cc1F)N(c1ccc3[nH]cnc3c1)C2=O (centres unmarked) [FRPPO-164] |
| 5.30 to 7.00 | 7.00 to 7.60 | > 6.00 | Cc1nn(C)c2c1C(c1ccc(-c3cnn(C(F)(F)F)c3)cc1F)N(c1ccc3[nH]cnc3c1)C2=O (centres unmarked) [FRPPO-165] |
| 5.30 to 7.00 | 5.30 to 7.00 | 5.30 to 6.00 | Cc1nn(C)c2c1C(c1ccc(-n3cc(C(F)(F)F)cn3)cc1F)N(c1ccc3[nH]cnc3c1)C2=O (centres unmarked) [FRPPO-166] |
